The text below walks through data of US11286234B2, “Phenyl urea derivatives as N-formyl peptide receptor modulators” (Allergan, Inc., priority 2016, dated 2022).

One assay deals with T1, FPR2 (Homo sapiens, UniProt P25090).
T1 construct: expressed in transfected cells
T1 sequence (P25090 1-351): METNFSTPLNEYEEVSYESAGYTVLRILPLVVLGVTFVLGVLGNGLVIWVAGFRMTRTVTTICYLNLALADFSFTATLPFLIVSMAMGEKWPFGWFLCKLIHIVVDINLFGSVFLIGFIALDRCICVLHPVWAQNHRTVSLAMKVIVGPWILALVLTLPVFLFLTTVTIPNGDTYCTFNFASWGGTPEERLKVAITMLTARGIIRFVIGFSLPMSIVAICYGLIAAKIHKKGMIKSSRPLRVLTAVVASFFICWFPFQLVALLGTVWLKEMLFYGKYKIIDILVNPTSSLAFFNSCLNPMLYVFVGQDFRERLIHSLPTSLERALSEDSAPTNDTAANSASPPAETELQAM
The assay is described as follows: Compound-induced calcium activity (FLIPR Tetra) in CHO-Gα16 cells stably expressing FPR2. The assay is classed as cell-based. Conditions: for EC50: calcium activity, tested 0.61 to 10,000 nM, read-out: FPR2 Ga16-CHO EC50; for Emax: efficacy value in brackets, read-out: FPR2 Ga16-CHO (% eff). How it is done:
(§1) CHO-Gα16 cells stably expressing FPR1 or FPR2 were cultured in: Ham's F12 nutrient media, 10% fetal bovine serum, 1% PSA (penicillin, streptomycin, amphotericin B antiobiotic/antimycotic), 400 μg/ml geneticin and 50 μg/ml hygromycin. In general, the day before the experiment, 18,000 cells/well were plated in a 384-well clear bottom poly-D-lysine coated plate. The following day the screening compound-induced calcium activity was assayed on the FLIPR^Tetra. The drug plates were prepared in 384-well microplates using the EP3 and the MultiPROBE robotic liquid handling systems. Compounds were tested at concentrations ranging from 0.61 to 10,000 nM. Results are expressed as EC50 (nM) and efficacy values.

The next assay has as its target T2, FPR1 (Homo sapiens, UniProt P21462).
T2 construct: expressed in transfected cells
T2 sequence (P21462 1-350): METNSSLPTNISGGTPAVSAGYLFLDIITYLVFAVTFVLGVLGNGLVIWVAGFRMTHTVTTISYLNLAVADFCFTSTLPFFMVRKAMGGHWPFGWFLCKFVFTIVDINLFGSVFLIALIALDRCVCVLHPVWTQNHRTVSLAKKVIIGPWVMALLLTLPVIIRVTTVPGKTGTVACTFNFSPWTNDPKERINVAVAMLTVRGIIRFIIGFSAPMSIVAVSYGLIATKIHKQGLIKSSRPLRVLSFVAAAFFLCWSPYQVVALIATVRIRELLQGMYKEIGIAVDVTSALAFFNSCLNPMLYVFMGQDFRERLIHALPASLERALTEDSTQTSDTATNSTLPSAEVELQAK
The assay can be described thus: Compound-induced calcium activity (FLIPR Tetra) in CHO-Gα16 cells stably expressing FPR1. The assay is classed as cell-based. To be noted: for EC50 / Emax: CHO-Gα16 cells stably expressing FPR1; for EC50: calcium activity, tested 0.61 to 10,000 nM, read-out: FPR1 Ga16-CHO EC50; for Emax: efficacy value in brackets, read-out: FPR1 Ga16-CHO (% eff); for Ratio FPR2:FPR1 (EC50): ratio of the EC50 for agonizing FPR2 to the EC50 for agonizing FPR1. How it is done:
as §1

Structures are written as SMILES. Some results are limits rather than exact numbers.

As to `O=C(Nc1ccc(Br)cc1)N[C@@H]1CCCC[C@H]1C(=O)O` (relative stereo) [Compound 18, (1R*,2R*)-2-(3-(4-Bromophenyl)ureido)cyclohexanecarboxylic acid], at FPR2, the EC50 came to 0.246 µM and the Emax was 98%. Also, at FPR1, the EC50 is 0.047 µM, the Emax is 101% and the “Ratio FPR2:FPR1 (EC50)” value was 5.2.
In the same order, the values of `O=C(Nc1ccc(Br)cc1)N[C@H]1CCCC[C@H]1C(=O)O` (relative stereo) [Compound 19, (1R*,2S*)-2-(3-(4-Bromophenyl)ureido)cyclohexanecarboxylic acid] are 0.048 µM, 102%, 0.014 µM, 97% and 3.4.
In the same order, the values of `COC(=O)C(CNC(=O)Nc1ccc(Br)cc1)CC(C)C` (centres unmarked) [Compound 1, Methyl 2-[({[(4-bromophenyl)amino]carbonyl}amino)methyl]-4-methylpentanoate] are 0.678 µM, 47%, 4.03 µM, 72% and 0.17.
On the same counts, the results for `COC(=O)C(CNC(=O)Nc1ccc(C(F)(F)F)cc1)CC(C)C` (centres unmarked) [Compound 2, Methyl 4-methyl-2-{[({[4-(trifluoromethyl)phenyl]amino}carbonyl)amino]methyl}pentanoate] are 2.2 µM, 78%, 10.4 µM, 57% and 0.21.
Take `COC(=O)C(CNC(=O)Nc1ccc(Cl)cc1)CC(C)C` (centres unmarked) [Compound 3, Methyl 2-[({[(4-chlorophenyl)amino]carbonyl}amino)methyl]-4-methylpentanoate]: on FPR2, the 50% effective concentration (EC50) was 1.32 µM and the Emax came to 95%. Moreover, at FPR1, the EC50 is > 10 µM, the Emax worked out at 50% and the “Ratio FPR2:FPR1 (EC50)” value was <1.
In the same order, the values of `COC(=O)C(CNC(=O)Nc1ccc(Br)cc1F)CC(C)C` (centres unmarked) [Compound 4, Methyl 2[({[(4-bromo-2-fluorophenyl)amino]carbonyl}amino)methyl]-4-methylpentanoate] are 1.53 µM, 98%, > 19 µM, 21% and <1.
In the same order, the values of `COC(=O)C(CNC(=O)Nc1ccc(OC)cc1)CC(C)C` (centres unmarked) [Compound 5, Methyl 2-[({[(4-methoxyphenyl)amino]carbonyl}amino)methyl]-4-methylpentanoate] are 0.541 µM, 42%, > 73 µM, 65% and <1.
In the case of `COC(=O)C(CNC(=O)Nc1ccc(OC(F)(F)F)cc1)CC(C)C` (centres unmarked) [Compound 6, Methyl 4-methyl-2-{[({[4-(trifluoromethoxy)phenyl]amino}carbonyl)amino]methyl}pentanoate], on FPR2, the concentration giving a half-maximal response (EC50) is > 1 µM and the Emax turned out to be 67%. For the same molecule, on FPR1, the EC50 was > 15 µM and the Emax stood at 39%.
As for `CC(C)CC(CNC(=O)Nc1ccc(Br)cc1)C(=O)O` (centres unmarked) [Compound 7, 2-[({[(4-Bromophenyl)amino]carbonyl}amino)methyl]-4-methylpentanoic acid], on FPR2, the EC50 was 1.3 µM and the Emax was 90%. At FPR1, the half-maximal effective concentration (EC50) was determined as 0.035 µM, the Emax is 97% and the “Ratio FPR2:FPR1 (EC50)” value amounted to 37.
Regarding `CC(C)CC(CNC(=O)Nc1ccc(C(F)(F)F)cc1)C(=O)O` (centres unmarked) [Compound 8, 4-Methyl-2-{[({[4-(trifluoromethyl)phenyl}amino}carbonyl)amino]methyl}pentanoic acid], at FPR2, the EC50 is 1.35 µM and the Emax stood at 92%. Moreover, on FPR1, the EC50 was determined as 0.054 µM, the Emax came out at 105% and the “Ratio FPR2:FPR1 (EC50)” value was determined as 25.
On to `CC(C)CC(CNC(=O)Nc1ccc(Cl)cc1)C(=O)O` (centres unmarked) [Compound 9, 2-[({[(4-Chlorophenyl)amino]carbonyl}amino)methyl]-4-methylpentanoic acid], for which the EC50 at FPR2 was 3 µM. Besides, on FPR1, the 50% effective concentration (EC50) was determined as 0.163 µM, the Emax was found to be 95% and the “Ratio FPR2:FPR1 (EC50)” value worked out at 18.
Consider `CC(C)CC(CNC(=O)Nc1ccc(Br)cc1F)C(=O)O` (centres unmarked) [Compound 10, 2[({[(4-Bromo-2-fluorophenyl)amino]carbonyl}amino)methyl]-4-methylpentanoic acid], for which, on FPR2, the half-maximal effective concentration (EC50) was 1.91 µM and the Emax was 94%. Besides, on FPR1, the EC50 is 0.113 µM, the Emax came to 98% and the “Ratio FPR2:FPR1 (EC50)” value amounted to 17.
As to `COc1ccc(NC(=O)NCC(CC(C)C)C(=O)O)cc1` (centres unmarked) [Compound 11, 2-[({[(4-methoxyphenyl)amino]carbonyl}amino)methyl]-4-methylpentanoic acid], on FPR2, the EC50 is > 1 µM and the Emax was found to be 56%. For the same molecule, on FPR1, the EC50 turned out to be 1.22 µM and the Emax was 92%.
In the case of `CC(C)CC(CNC(=O)Nc1ccc(OC(F)(F)F)cc1)C(=O)O` (centres unmarked) [Compound 12, 4-Methyl-2-{[({[4-(trifluoromethoxy)phenyl]amino}carbonyl)amino]methyl}pentanoic acid], at FPR2, the EC50 turned out to be 8.09 µM and the Emax stood at 40%. On FPR1, the EC50 is 1.18 µM, the Emax turned out to be 81% and the “Ratio FPR2:FPR1 (EC50)” value was 6.9.
On the same counts, the results for `CC(C)C(CNC(=O)Nc1ccc(Br)cc1)C(=O)O` (centres unmarked) [Compound 13, 2-((3-(4-Bromophenyl)ureido)methyl)-3-methylbutanoic acid] are 2.67 µM, 83%, 2.19 µM, 97% and 1.2.
In the same order, the values of `CCCC(CNC(=O)Nc1ccc(Br)cc1)C(=O)O` (centres unmarked) [Compound 14, 2-((3-(4-Bromophenyl)ureido)methyl)pentanoic acid] are 1.32 µM, 83%, 0.243 µM, 99% and 5.4.
In the same order, the values of `O=C(NCC(Cc1ccccc1)C(=O)O)Nc1ccc(Br)cc1` (centres unmarked) [Compound 15, 2-Benzyl-3-(3-(4-bromophenyl)ureido)propanoic acid] are 0.351 µM, 93%, 0.067 µM, 94% and 5.2.
For the molecule `CC(CNC(=O)Nc1ccc(Br)cc1)C(=O)O` (centres unmarked) [Compound 16, 3-(3-(4-Bromophenyl)ureido)-2-methylpropanoic acid], at FPR2, the EC50 was found to be 3.07 µM and the Emax turned out to be 62%. Moreover, at FPR1, the EC50 came to 2.85 µM, the Emax came out at 84% and the “Ratio FPR2:FPR1 (EC50)” value worked out at 1.1.
Turning to `CCC(CNC(=O)Nc1ccc(Br)cc1)C(=O)O` (centres unmarked) [Compound 17, 2-((3-(4-Bromophenyl)ureido)methyl)butanoic acid], on FPR2, the concentration for a half-maximal effect (EC50) came to 2.27 µM and the Emax amounted to 71%. Further, on FPR1, the half-maximal effective concentration (EC50) amounted to 2.15 µM, the Emax worked out at 85% and the “Ratio FPR2:FPR1 (EC50)” value is reported as 1.1.
